# Results as given in US20250236614A1, “BICYCLIC TETRAHYDROAZEPINE DERIVATIVES” (Hoffmann-La Roche Inc., priority 2022, published 2025).
# Columns and labels:
# DGK ζ kinase = DGK ζ kinase (Homo sapiens, UniProt Q13574); experiment: In vitro DGK inhibition assay (ADP Glo) run by Reaction Biology Corp., DGK zeta; format: biochemical; conditions: isomer A, 2 nM kinase, 50 μM ATP, 500 uM DLG, 10-dose, 3-fold dilution starting at 1 μM, read-out: DGKzeta IC50
# Procedure: (§1) DGK α and ζ kinase use ATP to phosphorylate the substrate 1,2-dilauroyl-sn-glycerol (DLG). ATP is converted to ADP as a result of this enzymatic reaction.
# (§2) After the kinase reaction, an ATP-depletion reagent is added to terminate the kinase reaction and deplete any remaining ATP, leaving only ADP. Second, a detection reagent is added to simultaneously convert ADP to ATP and allow the newly synthesized ATP to be converted to light using a coupled luciferase/luciferin reaction.
# (§3) DGK α and ζ kinase ADP Glo assays were ran by Reaction Biology Corp., 1 Great Valley Parkway, Suite 2, Malverm, 19355, PA, USA. Information provided by the service provider are the following: DGK α and ζ kinases were used at 2 nM final concentration. Reactions were carried out at 50 μM ATP. 500 uM of the substrate DLG (Dilauroyl-sn-glycerol) was used. Compounds were received at 10 mM DMSO stock solution and were tested in 10-dose IC50 duplicate with 3-fold serial dilution starting at 1 μM. A control compound, Calphostin C, was tested in 10-dose IC50 with 3-fold serial dilution starting at 100 μM.
# DGK α kinase = DGK α kinase (Homo sapiens, UniProt P23743); experiment: In vitro DGK inhibition assay (ADP Glo) run by Reaction Biology Corp., DGK alpha; format: biochemical; conditions: isomer A, 2 nM kinase, 50 μM ATP, 500 uM DLG, 10-dose, 3-fold dilution starting at 1 μM, read-out: DGKalpha IC50
# Sequence of DGK α kinase (P23743 whole entry): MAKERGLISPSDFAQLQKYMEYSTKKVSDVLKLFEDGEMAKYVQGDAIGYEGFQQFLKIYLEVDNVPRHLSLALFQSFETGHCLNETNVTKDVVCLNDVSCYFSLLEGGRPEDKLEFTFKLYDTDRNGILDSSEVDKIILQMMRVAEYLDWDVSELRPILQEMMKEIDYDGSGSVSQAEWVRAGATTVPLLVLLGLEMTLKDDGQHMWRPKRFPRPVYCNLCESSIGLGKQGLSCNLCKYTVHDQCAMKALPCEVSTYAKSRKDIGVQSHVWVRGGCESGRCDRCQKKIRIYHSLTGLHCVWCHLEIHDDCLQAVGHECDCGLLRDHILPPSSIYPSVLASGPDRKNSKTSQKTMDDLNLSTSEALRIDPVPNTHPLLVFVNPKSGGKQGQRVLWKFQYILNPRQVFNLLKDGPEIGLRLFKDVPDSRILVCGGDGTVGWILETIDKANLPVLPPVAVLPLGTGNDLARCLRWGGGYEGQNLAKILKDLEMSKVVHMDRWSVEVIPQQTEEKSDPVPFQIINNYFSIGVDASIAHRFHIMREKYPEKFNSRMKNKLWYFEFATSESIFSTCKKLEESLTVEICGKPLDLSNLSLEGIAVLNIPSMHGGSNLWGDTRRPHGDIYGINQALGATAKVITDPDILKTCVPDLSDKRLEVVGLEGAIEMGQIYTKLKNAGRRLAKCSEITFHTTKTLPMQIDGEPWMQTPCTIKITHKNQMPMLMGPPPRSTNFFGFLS
# Procedure: as §1, §2, §3
# [1] = molecular target: T1, hDGKalpha(1-735)-N-His (DGKA) (Homo sapiens, UniProt P23743); experiment: In vitro DGK inhibition assay (ADP-Glo, in house), DGK alpha; format: biochemical; conditions: isomer A; 4 nM DGK α, 25 μM ATP, 125 μM DLG in liposomes, 1 hour reaction; read-out: DGKalpha ADP Glo assay IC50
# T1 construct: hDGKalpha(1-735)-N-His; His (N)
# T1 sequence (P23743 whole entry): as above
# Procedure: (§4) DGK α and ζ kinase use ATP to phosphorylate the substrate 1,2-dilauroyl-sn-glycerol (DLG, incorporated in the liposomes). ATP is converted to ADP as a result of this enzymatic reaction.
# as §2
# (§5) Full length DGKA and Z were expressed in Sf21 insect cells by infecting the cells with the baculovirus stock at MOI of 2. Purification of both enzymes was performed as previously described by Takahashi et al., PeerJ, 2018 (Takahashi, D.; Sakane, F. Expression and purification of human diacylglycerolkinase alpha from baculovirus-infected insect cells for structural studies. PeerJ2018, 6, No. e5449).
# (§6) A concentrated liposome solution was prepared in assay buffer without DTT and BSA: 2 mM of DLG in 21 mM of total liposome (2 mM DLG/8 mM PS/11 mM PC). The reaction mixtures contain the assay buffer with a final DLG concentration of 125 μM ATP concentrations of 25 μM (for DGKA assay) or 50 μM (for DGKZ assay). The reactions were started by addition of DGK α and ζ kinases at 4 nM and 2 nM final concentrations, respectively. After 1 hour reaction, the amount of ADP formed was detected with the ADP-Glo kinase assay (Promega) according to the manufacturer instructions. Compounds were added in 11I-points dose response, starting at 10 mM, 1:3 dilutions, with a final DMSO concentration of […]. The multidrop combi was used as a liquid handler and luminescence was read with 0.5 s by the envision reader (PE).
# [2] = molecular target: T2, hDGKzeta(1-928)-N-His (DGKZ) (Homo sapiens, UniProt Q13574); experiment: In vitro DGK inhibition assay (ADP-Glo, in house), DGK zeta; format: biochemical; conditions: isomer A; 2 nM DGK ζ, 50 μM ATP, 125 μM DLG in liposomes, 1 hour reaction; read-out: DGKzeta ADP Glo assay IC50
# T2 construct: hDGKzeta(1-928)-N-His; His (N)
# T2 sequence (Q13574 whole entry): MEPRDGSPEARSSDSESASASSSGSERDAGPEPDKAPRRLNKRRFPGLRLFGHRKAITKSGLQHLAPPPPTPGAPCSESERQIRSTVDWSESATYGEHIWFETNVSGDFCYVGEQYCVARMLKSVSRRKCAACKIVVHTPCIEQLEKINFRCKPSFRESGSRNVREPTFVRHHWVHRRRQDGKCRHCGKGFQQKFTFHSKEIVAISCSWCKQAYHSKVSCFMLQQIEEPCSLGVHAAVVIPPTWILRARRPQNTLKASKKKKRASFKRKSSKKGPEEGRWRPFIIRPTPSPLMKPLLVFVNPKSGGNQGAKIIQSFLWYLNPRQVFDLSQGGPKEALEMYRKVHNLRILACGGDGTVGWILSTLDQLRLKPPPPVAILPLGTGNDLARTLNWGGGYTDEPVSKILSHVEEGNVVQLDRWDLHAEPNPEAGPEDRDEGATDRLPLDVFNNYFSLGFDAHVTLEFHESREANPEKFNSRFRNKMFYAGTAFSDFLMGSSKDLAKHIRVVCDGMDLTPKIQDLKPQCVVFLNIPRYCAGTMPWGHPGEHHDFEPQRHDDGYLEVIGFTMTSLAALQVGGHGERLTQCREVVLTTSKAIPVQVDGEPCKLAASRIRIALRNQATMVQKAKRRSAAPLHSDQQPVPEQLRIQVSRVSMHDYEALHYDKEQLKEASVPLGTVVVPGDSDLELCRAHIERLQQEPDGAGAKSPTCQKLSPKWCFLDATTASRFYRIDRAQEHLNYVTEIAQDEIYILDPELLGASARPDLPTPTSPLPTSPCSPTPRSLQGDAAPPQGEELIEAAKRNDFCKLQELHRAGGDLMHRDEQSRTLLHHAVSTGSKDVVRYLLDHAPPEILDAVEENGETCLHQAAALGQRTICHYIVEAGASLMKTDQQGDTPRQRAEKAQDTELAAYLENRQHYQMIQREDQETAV
# Procedure: as §4, §2, §5, §6
# primary human T-cells = experiment: T-cell proliferation assay (CellTiter-Glo); format: cell-based; conditions: Homo sapiens, T-cell, 120 h, isomer A; for EC50: CD3 antibody-stimulated T-cells, CellTiter-Glo after 5 days, read-out: Tcell Proliferation CD3 EC50; for Emax: CD3 condition, 5 days, 20 μM reference compound A1 = 100%, DMSO neutral control, read-out: Emax proliferation (% activation)
# Procedure: Expanded primary human T-cells are thawed and cultured in RPMI 1640 (Gibco, #61870-010)+5% human serum (HS, Sigma, #H3667)+1 mM Sodium Pyruvate (Gibco, #11360-039)+50 μM 2-mercaptoethanol (Gibco, #31350-010) and 1× Pen-Strep (Life Technologies, #15140122) medium at density of 2 Mio/ml for 3 hours in 5% CO2, 37° C. and 95% humidity. For coating of plates, PBS++ only or PBS++ with CD3 antibody (concentration depending on donor and determined by CD3 titrations) is added 100 μl/well to Poly-D Lysine coated 96-well plates. Plates are sealed and incubated at room temperature for 3 hours on a table-top rocking platform. After incubation, plates are washed once with PBS−− and filled with 40 μl/well culture medium only. Compounds are then added (see next section) to medium only plates. After 3 hours of culturing the T-cells, cells are filtered through a cell strainer (Miltenyi Biotech, #130-041-407), counted again and concentration is adjusted to 1.25 Mio/ml.
# Cells are then seeded 80 μl/well to the 40 μl/well including dispensed compounds according to plate layout. By adding cells, compounds are further diluted 1:3, and resulting in 100k cells/120 μl/well. After 48 hours 40 μl of supernatant is collected carefully from the top while not disturbing the cells. Cells are assessed for proliferation 5 days later by measuring […] using CellTiterGlo (Promega).
# Compounds were added in a 5 or 6 pt dose response with the Tecan D300e Digital Dispenser, all conditions 3 times more concentrated than the end-concentration, since cells are added afterwards (80 μl cells to 40 μl prepared medium with treatment). The DR was starting at 20 μM or 10 μM final top concentration and a dilution factor of 3.333. The positive control was the reference compound A1 that was added in a dose response as well, additionally to 3 wells of only 20 μM representing the positive stimulator control. All wells were normalized with DMSO to a final concentration of 0.6% (0.2% end-concentration).
# After 5 days, for detection of ATP which is directly proportional to the number of cells present per well, the CellTiter-Glo® 2.0 Reagent is used. After visual control for toxicity or precipitations of the tested compounds, the plates are equilibrated to room temperature for 45 minutes. CellTiter-Glo® 2.0 Reagent is equilibrated to room temperature as well. After equilibration, an equal amount of CellTiter-Glo reagent is added to the cells (80 μl/well) with an electronic multichannel pipette. Plates are placed on a rocking platform for 15 minutes at room temperature. After incubation, the bottom of the plates is sealed with backing tape. Luminescence is measured with PHERAstar FSX (interval time 0.5 sec, gain 3000, focal height 15 mm) and exported as CSV file for analysis in Genedata screener.
# CD3 and PBS plates were analysed separately in Genedata Screener using Roche Normalization PCT_POS_CTRL with DMSO set as Neutral Control and 20 μM of the reference compound A1 set as Stimulator Control/100%.
# For CD3 conditions EC50 and Emax of the fitted sigmoidal curve were reported. If no curve could be fitted, the EC50 was reported as blank field and the Emax was based on individual data points. […] Compounds which activate unstimulated cells (see IL2 measurements) or compounds which negatively affected viability were flagged.
# Sequence of DGK ζ kinase (Q13574 whole entry): as above
Structure (SMILES),IC50 (DGK ζ kinase),IC50 (DGK α kinase),IC50 [1],IC50 [2],EC50 (primary human T-cells),Emax (primary human T-cells)
"CC(C)(C#N)c1nnc(-c2cc3c(cc2F)C(F)(F)C[C@@H](N)C(=O)N3Cc2ccc(Oc3ccccc3)cc2)o1 (single isomer, unassigned) [Example 11]",20.6 nM,6.9 nM,3.31 µM,1.25 µM,192 nM,88%
"CC(C)(C)c1cncc(-c2cc3c(cc2F)C(F)(F)C[C@@H](N)C(=O)N3Cc2ccc(Cl)cc2)c1 (single isomer, unassigned) [Example 18]",,,> 62.5 µM,> 62.5 µM,666 nM,52%
"CC(C)(C#N)c1nnc(-c2cc3c(cc2F)C(F)(F)C[C@@H](N)C(=O)N3Cc2ccc(-n3cc(OC(F)(F)F)cn3)cc2)o1 (single isomer, unassigned) [Example 43]",,,,,23.4 nM,105%
"CC(C)(C#N)c1nnc(-c2cc3c(cc2F)C(F)(F)C[C@@H](N)C(=O)N3Cc2ccc(-n3cc(C(F)(F)F)cn3)cc2F)o1 (single isomer, unassigned) [Example 44]",,,,,1460 nM,126%
"CC(C)(C#N)c1nnc(-c2cc3c(cc2F)C(F)(F)C[C@@H](N)C(=O)N3Cc2ccc(-n3cc(C(F)(F)F)cn3)nc2F)o1 (single isomer, unassigned) [Example 45]",,,,,2940 nM,67%
"CC(C)(C#N)c1nnc(-c2cc3c(cc2F)C(F)(F)C[C@@H](N)C(=O)N3Cc2ccc(-n3cc(C(F)(F)F)cn3)nc2)o1 (single isomer, unassigned) [Example 46]",,,17.8 µM,6.75 µM,542 nM,87%
"CC(C)(C#N)c1nnc(-c2cc3c(cc2F)C(F)(F)C[C@@H](N)C(=O)N3Cc2ccc(-n3cc(C(F)(F)F)cn3)c(F)c2)o1 (single isomer, unassigned) [Example 47]",,,23.7 µM,2.99 µM,496 nM,98%
"CC(C)(C#N)c1nnc(-c2cc3c(cc2F)C(F)(F)C[C@@H](N)C(=O)N3Cc2ccc(-c3cnn(C(F)(F)F)c3)cc2)o1 (single isomer, unassigned) [Example 48]",,,1.51 µM,4.92 µM,163 nM,171%
